This is an account of results in patent US5198427A, “Natural intense sweeteners” (Research Corporation Technologies, Inc., priority 1990, dated 1993).

A short description of series [1]: Sensory evaluation by human taste panel. As to conditions: for Sweetness relative to a 2% aqueous solution of sucrose: ammonium salts, in water, human taste panel; for Sweetness relative to 2% sucrose: three-person panel, dilute ammonium hydroxide solution diluted with water. The protocol: Abrusoside A (4 mg) is dissolved in 0.033N ammonium hydroxide solution (0.2 ml), to which is added 1.8 ml of water to yield the equivalent of a 0.2 % w/v solution of abrusoside A. Aliquots (0.2 ml) of this solution are diluted with 0.4, 0.8, 1.3, and 1.8 ml water, respectively. The diluted solutions is tasted sequentially, in order to judge the intensity of sweetness equivalent to that of a 2% w/v aqueous sucrose solution. Similar procedures are used in the sensory evaluation of […], expect that the concentrations of the ammonium hydroxide solutions used are 0.05N for abrusosides B and C, and 0.025N for abrusoside D. These sensory experiments are performed by a small panel consisting of three persons.

The nature of series [2]: Acute toxicity in mice, single oral dose. The format is in vivo, male Swiss-Webster mice. To be noted: for Average body weight of test animals, Day 0 / Average body weight of test animals, Day 1 / Average body weight of test animals, Day 3 / Average body weight of test animals, Day 7 / Average body weight of test animals, Day 14: 1 g/kg oral intubation; for Average body weight of test animals, Day 0: day 0 (prior to administration); for t (body weight, test vs control), Day 0 / t (body weight, test vs control), Day 1 / t (body weight, test vs control), Day 3 / t (body weight, test vs control), Day 7 / t (body weight, test vs control), Day 14: 1 g/kg oral, 0.95 confidence. The protocol: The sweet isolates, abrusosides A-D, are each tested for acute toxicity in mice. Experiments are carried out with male Swiss-Webster mice (6-8 weeks old), that are housed in temperature-controlled rooms with a 12-hr light/dark cycle, and allowed free access to water and food. After acclimatization for three days, groups of 10 animals receive a single 1 g/kg body weight dose of either abrusoside A, B, C, or D by oral intubation. Test materials are suspended in 1% aqueous sodium carboxymethylcellulose. A control group treated with only 1% sodium caroboxymethylcellulose is also included in the experiment. In all experiments, no incidence of mortality occurred for up to 14 days after dosing. Animals are examined for body weight variations on days 0 (prior to administration), 1, 3, 7, and 14. Body weight variations between treated and control groups are analyzed by one-way analysis of variance using an appropriate computer program. It may be seen from these tables that no significant differences in body weight variation occurred between each of the four test compounds and the controls, when assessed for a fourteen day period following compound administration.

Series [3] concerns Salmonella typhimurium strain TM677. Type of series: cell-based. To be noted: DMSO. The procedure:
Salmonella typhimurium strain TM677, carrying the "R-factor" plasmid pKM101, is used for the assessment of mutagenic activity. Mutagenic assays are conducted on abrusosides A, B, C, and D, both in the absence and presence of a metabolic activating agent, obtained from a 9,000 × g supernatant fraction from the livers of […] rats. The following protocols are used in this procedure.
Male Sprague-Dawley rats (body weight 100-120 g) were housed in air-conditioned quarters, with a 12 hr/12 hr light-dark cycle, and are given food and water ad libitum. The rats (groups of 10) are given single intraperitoneal injections of Aroclor 1254 (400 mg/kg) in corn oil. Four days after the treatment with Aroclor 1254, the rats are sacrificed by decapitation. Their livers are immediately excised, rinsed several times with cold 0.14 M NaCl, minced, and homogenized with 3 volumes (v/w) of 50 mM Tris HCl, pH 5, containing 0.14 M KCl, using a glass homogenizing vessel and a motor-driven Teflon pestle. The homogenate is filtered through cheese-cloth, and centrifuged at 9,000 g for 20 minutes to yield an S-9 fraction. The isolation procedures described above are conducted at 0°-4° C., and the isolated S-9 fraction is stored in small aliquots in liquid nitrogen.
Duplicate 0.98-ml reaction mixtures containing 0.1 mg of NADP^+, 1.0 mg of glucose-6-phosphate, 0.8 units of glucose-6-phosphate dehydrogenase, 0.67 mg of MgCl2, the S-9 fraction, and approximately 7×10^6 bacteria in logarithmic phase, are prepared in minimal essential medium. When metabolic activation is not required, only bacteria and minimal essential medium are mixed.
After addition of each test substance dissolved in 20 ul of DMSO, the mixtures are slowly rotated at 37° C. for 2 hours. Each reaction mixture is then quenched by addition of 4 ml phosphate-buffered saline. The bacteria are recovered by centrifugation, resuspended, diluted as appropriate, and plated, in triplicate, in the presence or absence of 8-azaguanine. Plates are scored […] on plates containing 8-azaguanine divided by the average number of plates not containing azaguanine, after correcting for dilution factors. The latter value is used to define the percentage of bacteria surviving the treatment, relative to a control in which only an equivalent amount of solvent had been added.
The spontaneous mutant fraction for this assay is 7.4±5×10^-5 (n=145). A compound is said to cause significant mutation if the induced mutant fraction is greater than or equal to two times the spontaneous mutant fraction.

The conditions of series [4]: cited from earlier work.
The mark [5] stands for this setting: 2.5 mg/ml, activating system none.
Where [6] appears, read: 5.0 mg/ml, activating system none.

Where two headings read alike, the source gives them in different places.

`CC1=CC[C@@H]([C@@H](C)[C@H]2CC[C@@]3(C)[C@@H]4CC[C@H]5[C@](C)(C(=O)O)[C@@H](O[C@@H]6O[C@H](CO)[C@@H](O)[C@H](O)[C@H]6O)CC[C@@]56C[C@@]46CC[C@]23C)OC1=O` [Abrusoside A]: in series [1], the “Sweetness relative to a 2% aqueous solution of sucrose” value is 30 x and the “Sweetness relative to 2% sucrose” value is 30 times. In addition, in series [2], the “Average body weight of test animals, Day 0” value (“Average body weight … Day 0” below) came to 23.4 g; the “Average body weight of test animals, Day 1” value came to 23.7 g; the “Average body weight of test animals, Day 3” value (“Average body weight … Day 3” for short) is listed as 24.4 g; the “Average body weight of test animals, Day 7” value (from here on “Average body weight … Day 7”) is given as 25.4 g. In series [2], the “Average body weight of test animals, Day 14” value (from here on “Average body weight … Day 14”) came to 26.1 g; the “t (body weight, test vs control), Day 0” value is 0.292; the “t (body weight, test vs control), Day 1” value was 0.153; the “t (body weight, test vs control), Day 3” value was 0.368. Moreover, in series [2], the “t (body weight, test vs control), Day 7” value is reported as 0.000 and the “t (body weight, test vs control), Day 14” value worked out at 0.000. In series [3] (2.5 mg/ml, Aroclor S-9), the “% Survival” value is given as 100% and the “Mutant Fraction” value is recorded as 8.1 × 10^5. Besides, in series [3] (setting [5]), the “% Survival” value was 100% and the “Mutant Fraction” value is 7.9 × 10^5. Besides, in series [3] (5.0 mg/ml, Aroclor S-9), the “% Survival” value amounted to 100% and the “Mutant Fraction” value is 7.3 × 10^5. In addition, in series [3] (setting [6]), the “% Survival” value came out at 100% and the “Mutant Fraction” value is 8.1 × 10^5.

With `COC(=O)[C@H]1O[C@@H](O[C@H]2[C@H](O[C@H]3CC[C@]45C[C@]46CC[C@]4(C)[C@@H]([C@H](C)[C@@H]7CC=C(C)C(=O)O7)CC[C@@]4(C)[C@@H]6CC[C@H]5[C@]3(C)C(=O)O)O[C@H](CO)[C@@H](O)[C@@H]2O)[C@H](O)[C@@H](O)[C@@H]1O` [Abrusoside B], in series [1], the “Sweetness relative to a 2% aqueous solution of sucrose” value is recorded as 100 x and the “Sweetness relative to 2% sucrose” value is 100 times. In series [2], the “Average body weight … Day 0” value is reported as 23.5 g; the “Average body weight of test animals, Day 1” value is given as 23.7 g; the “Average body weight … Day 3” value was 23.9 g; the “Average body weight … Day 7” value amounted to 25.0 g. Further, in series [2], the “Average body weight … Day 14” value was determined as 26.4 g; the “t (body weight, test vs control), Day 0” value is given as 0.432; the “t (body weight, test vs control), Day 1” value was determined as 0.330; the “t (body weight, test vs control), Day 3” value stood at 0.458. In series [2], the “t (body weight, test vs control), Day 7” value was determined as 0.576 and the “t (body weight, test vs control), Day 14” value was found to be 0.282. Also, in series [3] (2.5 mg/ml, Aroclor S-9), the “% Survival” value was 100% and the “Mutant Fraction” value is 7.2 × 10^5. Besides, in series [3] (setting [5]), the “% Survival” value was 100% and the “Mutant Fraction” value was 8.7 × 10^5. For the same compound, in series [3] (5.0 mg/ml, Aroclor S-9), the “% Survival” value was found to be 100% and the “Mutant Fraction” value is on record as 8.2 × 10^5. For the same compound, in series [3] (setting [6]), the “% Survival” value came out at 100% and the “Mutant Fraction” value was 7.3 × 10^5.

Regarding `CC1=CC[C@@H]([C@@H](C)[C@H]2CC[C@@]3(C)[C@@H]4CC[C@H]5[C@](C)(C(=O)O)[C@@H](O[C@@H]6O[C@H](CO)[C@@H](O)[C@H](O)[C@H]6O[C@@H]6O[C@H](CO)[C@@H](O)[C@H](O)[C@H]6O)CC[C@@]56C[C@@]46CC[C@]23C)OC1=O` [Abrusoside C], in series [1], the “Sweetness relative to a 2% aqueous solution of sucrose” value turned out to be 50 x and the “Sweetness relative to 2% sucrose” value turned out to be 50 times. In series [2], the “Average body weight … Day 0” value was found to be 23.4 g; the “Average body weight of test animals, Day 1” value is 23.8 g; the “Average body weight … Day 3” value is on record as 24.3 g; the “Average body weight … Day 7” value worked out at 25.3 g. Moreover, in series [2], the “Average body weight … Day 14” value is given as 26.9 g; the “t (body weight, test vs control), Day 0” value is on record as 0.282; the “t (body weight, test vs control), Day 1” value is 0.371; the “t (body weight, test vs control), Day 3” value is 0.302. Also, in series [2], the “t (body weight, test vs control), Day 7” value is on record as 0.129 and the “t (body weight, test vs control), Day 14” value is listed as 0.930. Also, in series [3] (2.5 mg/ml, Aroclor S-9), the “% Survival” value was determined as 100% and the “Mutant Fraction” value was 7.7 × 10^5. In series [3] (setting [5]), the “% Survival” value is 100% and the “Mutant Fraction” value is on record as 8.1 × 10^5. For the same compound, in series [3] (5.0 mg/ml, Aroclor S-9), the “% Survival” value was 100% and the “Mutant Fraction” value is on record as 6.7 × 10^5. In series [3] (setting [6]), the “% Survival” value was found to be 100% and the “Mutant Fraction” value is on record as 7.6 × 10^5.

On to `CC1(C)[C@@H](O[C@H]2O[C@H](C(=O)O)[C@@H](O)[C@H](O)[C@H]2O[C@@H]2O[C@H](C(=O)O)[C@@H](O)[C@H](O)[C@H]2O)CC[C@]2(C)[C@H]3C(=O)C=C4[C@@H]5C[C@@](C)(C(=O)O)CC[C@]5(C)CC[C@@]4(C)[C@]3(C)CC[C@@H]12` [Glycyrrhizin], for which the “Retention of sodium, chlorine and water” value in series [4] (humans) was “can cause abnormal retention of sodium, chlorine and water in humans”. The Adrenocorticomimetic activity result in series [4] (mimics the effects of the adrenal cortex) is “known adrenocorticomimetic activity”.

In the case of Abrusoside D, the “Duration of lingering sweetness” value in series [1] (0.04% w/v) is “about 30 minutes”. Moreover, in series [1], the “Sweetness relative to a 2% aqueous solution of sucrose” value came to 75 x and the “Sweetness relative to 2% sucrose” value is 75 times. In series [2], the “Average body weight … Day 0” value is 24.1 g; the “Average body weight of test animals, Day 1” value amounted to 24.4 g; the “Average body weight … Day 3” value worked out at 24.9 g; the “Average body weight … Day 7” value is given as 25.7 g. In series [2], the “Average body weight … Day 14” value was 27.0 g; the “t (body weight, test vs control), Day 0” value is given as 1.199; the “t (body weight, test vs control), Day 1” value is recorded as 1.140; the “t (body weight, test vs control), Day 3” value is 0.991. Further, in series [2], the “t (body weight, test vs control), Day 7” value was found to be 0.383 and the “t (body weight, test vs control), Day 14” value is reported as 0.812. In series [3] (2.5 mg/ml, Aroclor S-9), the “% Survival” value is given as 100% and the “Mutant Fraction” value is 11.8 × 10^5. Besides, in series [3] (setting [5]), the “% Survival” value is 100% and the “Mutant Fraction” value is recorded as 16.7 × 10^5. For the same compound, in series [3] (5.0 mg/ml, Aroclor S-9), the “% Survival” value was found to be 100% and the “Mutant Fraction” value is 11.0 × 10^5. In series [3] (setting [6]), the “% Survival” value came to 100% and the “Mutant Fraction” value was 15.3 × 10^5.
